The test system of assay [1] is Herpes simplex virus. The assay is described as follows: In vitro plaque inhibition of Herpes simplex virus in BSC-1 or Hela cells (Table 3). The settings on record: for inhibition at 3 µg/mL: read-out: PERCENT INHIBITION OF PLAQUES AT 3 mcg/ml; for inhibition at 12 µg/mL: read-out: PERCENT INHIBITION OF PLAQUES AT 12 mcg/ml; for inhibition at 25 µg/mL: read-out: PERCENT INHIBITION OF PLAQUES AT 25 mcg/ml; for PERCENT INHIBITION OF PLAQUES AT 50 mcg/ml / inhibition at 50 µg/mL: 50 mcg/ml; for inhibition at 50 µg/mL: read-out: PERCENT INHIBITION OF PLAQUES AT 50 mcg/ml; for inhibition at 6 µg/mL: read-out: PERCENT INHIBITION OF PLAQUES AT 6 mcg/ml; for inhibition at 100 µg/mL: 100 mcg/ml, read-out: PERCENT INHIBITION OF PLAQUES AT 100 mcg/ml. In kind it is cell-based. As for the experimental part:
The compounds of this invention also have anti-viral activity in vitro against Herpes simplex virus.
African green monkey kidney cells (BSC-1) or Hela cells (5-3) were grown in 25 cc. Falcon flasks at 37° C. in medium 199 with 5 percent inactivated fetal bovine serum (FBS), penicillin (150 units 1 ml.) and streptomycin (150 mcg./ml.). When confluent monolayers were formed, the supernatant growth medium was removed and 0.3 ml. of an appropriate dilution of Herpes simplex virus was added to each flask. After adsorption for one hour at room temperature, the virus infected cell sheet was overlaid with a medium comprising one part of 1 percent Ionagar No. 2 and one part double strength medium 199 with FCS, (fetal calf serum) penicillin, and streptomycin and also containing drug at concentrations of 100, 50, 25, 12, 6 and 3 micrograms per milliliter (mcg./ml.). The flask containing no drug served as a control. The stock solutions of 2,3-dihydroimidazo[1,2-c]pyrimidine compounds were made up in dimethylsulfoxide dilution at a concentration of 10^4 mcg./ml. The flasks were incubated for 72 hours at 37° C. […] A solution of 10 percent formalin and 2 percent sodium acetate was added to each flask to inactivate the virus and fix the cell sheet to the surface of the flask. The virus plaques, irrespective of size, were counted after staining the surrounding cell areas with crystal violet. The plaque count was compared to the control count at each drug concentration. The activity of the test compound was expressed as percentage plaque inhibition. Table 3, which follows, embodies the results of these determinations. In the table, column 1 gives the name of the compound, columns 2 through 6, the percent inhibition of herpes simplex plaques at various mcg./ml. levels of drug.

Assay [2] concerns cutaneous Herpes simplex virus type 1. Nature of the assay: Topical treatment of cutaneous Herpes simplex virus type 1 lesions on guinea pig back, final score (Table 1). In kind it is in vivo, guinea pigs. The note with it: lesions scored 0 to 4+. As for the experimental part: Three epilated areas on each guinea pig back were inoculated with approximately 1×10^5 plaque forming units of virus using a Sterneedle triggered 10 times for each area. Untreated guinea pigs so inoculated developed consistent rosette lesions in about 96 hours. All three areas on the back of each guinea pig were drug-treated and these compared with separate control animals which were treated with the particular vehicle employed for administering the drug. The positive control animals were treated with 0.5-1.0 percent phosphonoacetic acid (PAA) suspended in the same vehicle as the drug. Animals were inoculated on the morning of day 1 and treated on the afternoon of day 1. Two treatments per day were administered through day 5 for a total of 10 treatments. Hair was again epilated on day 5 and readings were begun then and taken daily through day 10. Lesions for each area were scored from 0 to 4+, which was a fully developed herpatic lesion with inflammation vesicles and pustules. An average score was then calculated for each drug for each day for the number of treated areas and control areas. Usually 3-6 guinea pigs were used per drug. After scoring, a final score or mean of means was calculated for drug-treated and for control areas. Table I which follows gives the results of determinations carried out as outlined above on compounds coming within the scope of this invention. In the table, column 1 gives the name of the drugs, column 2, the vehicle, column 3, the concentration; column 4, the number of animals used; and columns 5, the final score.

In assay [3] the test system is Herpes simplex virus type I and Herpes simplex virus type II. The assay is described as follows: Intravaginal treatment of Herpes simplex virus type I and type II infection in guinea pigs, final score (Table 2). The note with it: 2.5 % conc., top score +16. The format is in vivo. On the procedure:
A second in-vivo test against Herpes simplex virus type I and Herpes simplex virus type II was carried out as follows. Guinea pigs were inoculated intravaginally by swabing the vagina with an absorbent cotton swab containing 2×10^4 plaque forming units of the virus. Prior to the inoculation with the virus, the vagina was swabbed with physiological saline to remove potential virus inhibitors. Treatment was started four hours after inoculation and continued for four days. The drug in a suitable base was introduced into the vaginal area also with an absorbent cotton swab. Controls in which the vehicle only were swabbed were included. Beginning on day 5 after inoculation and continuing through day 10, each animal was examined and scored from 0 to 4+ for secretion, inflammation, vesiculation and necrosis, thus yielding a possible top score of +16 per guinea pig. In the table, column 1 gives the name of the compound; column 2, the vehicle; column 3, the concentration; column 4, the number of animals used; and columns 5, the final score.

The mark [4] stands for this setting: 25 mcg/ml, 72 hours at 37° C., hydrochloride.
Setting [5] is: 72 hours at 37° C., hydrochloride.
Where [6] appears, read: 72 h, 3 mcg/ml, 72 hours at 37° C.
[7] abbreviates: 72 h, 12 mcg/ml, 72 hours at 37° C.
Setting [8] is: 72 h, 25 mcg/ml, 72 hours at 37° C.
Setting [9] is: 72 h, 6 mcg/ml, 72 hours at 37° C.

The values below come from US4153695A, “Substituted 2,3-dihydro imidazo[1,2-c]pyrimidines” (priority 1978, dated 1979).

Values joined by “and” are separate entries in the source; they are usually repeats but may differ in a detail not shown here. Equal entries are not always repeated. Structures can show the parent of a compound that is named as a salt. Where two headings read alike, the source gives them in different places.

Consider `CC1=NC(Cl)=CC2=NC(c3ccccc3)CN12.Cl` (racemic) [2-phenyl-5-methyl-7-chloro-2,3-dihydroimidazo[1,2-c]pyrimidine hydrochloride], for which, in assay [1] (12 mcg/ml, 72 hours at 37° C., hydrochloride), the “PERCENT INHIBITION OF PLAQUES AT 12 mcg/ml” value stood at 50%. Also, the “PERCENT INHIBITION OF PLAQUES AT 25 mcg/ml” value in assay [1] (setting [4]) came to 83%. Further, the “PERCENT INHIBITION OF PLAQUES AT 50 mcg/ml” value in assay [1] (setting [5]) was determined as 89%. In assay [1] (setting [6]), the inhibition at 3 µg/mL came to 0%. The inhibition at 12 µg/mL in assay [1] (setting [7]) stood at 41%. In addition, the inhibition at 25 µg/mL in assay [1] (setting [8]) stood at 87%. Besides, the inhibition at 50 µg/mL in assay [1] (72 h, 72 hours at 37° C.) was determined as 100%.

Consider `CC1=NC(Cl)=CC2=NCC(C)N12` (racemic) [dl-3,5-dimethyl-7-chloro-2,3-dihydroimidazo[1,2-c]pyrimidine hydrochloride], for which the inhibition at 6 µg/mL in assay [1] (setting [9]) stood at 0%. Besides, the inhibition at 12 µg/mL in assay [1] (setting [7]) was determined as 0%. In addition, in assay [1] (setting [8]), the inhibition at 25 µg/mL came out at 12%. Besides, the inhibition at 50 µg/mL in assay [1] (72 h, 72 hours at 37° C.) is 74%.

On to `CC1=NC(Cl)=CC2=NCC(c3ccccc3)N12` (racemic) [dl-3-phenyl-5-methyl-7-chloro-2,3-dihydroimidazo[1,2-c]pyrimidine hydrochloride], for which, in assay [2] (vehicle D, 2.5 % conc.), the “Final Score” value is listed as 1.72. Further, the “PERCENT INHIBITION OF PLAQUES AT 25 mcg/ml” value in assay [1] (setting [4]) was 68%. In addition, the “PERCENT INHIBITION OF PLAQUES AT 50 mcg/ml” value in assay [1] (setting [5]) worked out at 95%. Further, the inhibition at 3 µg/mL in assay [1] (setting [6]) was 0%. Also, the inhibition at 6 µg/mL in assay [1] (setting [9]) worked out at 0%. Moreover, the inhibition at 25 µg/mL in assay [1] (setting [8]) came to 78%. Moreover, the inhibition at 50 µg/mL in assay [1] (72 h, 72 hours at 37° C.) was found to be 100%.

For the compound `CSC1=NC(Cl)=CC2=NCC(c3ccccc3)N21` (racemic) [dl-3-phenyl-5-methylthio-7-chloro-2,3-dihydroimidazo[1,2-c]pyrimidine hydrochloride], the inhibition at 3 µg/mL turned out to be 23% in assay [1] (3 mcg/ml, high virus input (HV)) and 57% in assay [1] (3 mcg/ml, low virus input (LV)). The inhibition at 6 µg/mL in assay [1] (6 mcg/ml, high virus input (HV)) stood at 84%; in assay [1] (6 mcg/ml, low virus input (LV)), 100%.

Turning to `NC1=NC(Cl)=CC2=NCCN12` [5-Amino-7-chloro-2,3-dihydroimidazo[1,2-c]pyrimidine hydrochloride], the inhibition at 3 µg/mL in assay [1] (setting [6]) stood at 0%. The inhibition at 6 µg/mL in assay [1] (setting [9]) worked out at 0%. Further, the inhibition at 12 µg/mL in assay [1] (setting [7]) came out at 0%. Further, the inhibition at 25 µg/mL in assay [1] (setting [8]) amounted to 0%. In assay [1] (72 h, 72 hours at 37° C.), the inhibition at 50 µg/mL amounted to 0% and the inhibition at 100 µg/mL was 11%.

`CCC1=NC(Cl)=CC2=NCCN21.Cl` [5-Ethyl-7-chloro-2,3-dihydroimidazo[1,2-c]pyrimidine hydrochloride]: the “Final Score” value stood at 1.09 in assay [2] (vehicle D, 1.0 % conc.); 1.53 in assay [2] (vehicle D, 1.5 % conc.); 1.60 in assay [2] (vehicle D, 2.5 % conc.); 2.83 in assay [3] (vehicle R). In addition, the “PERCENT INHIBITION OF PLAQUES AT 25 mcg/ml” value in assay [1] (setting [4]) came out at 33%. For the same compound, the “PERCENT INHIBITION OF PLAQUES AT 50 mcg/ml” value in assay [1] (setting [5]) came out at 76%. For the same compound, in assay [1] (setting [6]), the inhibition at 3 µg/mL stood at 0%. Moreover, the inhibition at 25 µg/mL in assay [1] (setting [8]) amounted to 50%. Besides, the inhibition at 100 µg/mL in assay [1] (72 h, 72 hours at 37° C.) amounted to 100%.

For `CSC1=NC(Cl)=CC2=NCCN21.Cl` [5-Methylthio-7-chloro-2,3-dihydroimidazo[1,2-c]pyrimidine hydrochloride], the “Final Score” value in assay [2] (vehicle R, 2.5 % conc.) is listed as 2.00; in assay [3] (vehicle D) it was 3.81; in assay [3] (vehicle R) it was “.92”. Moreover, the “PERCENT INHIBITION OF PLAQUES AT 6 mcg/ml” value in assay [1] (6 mcg/ml, 72 hours at 37° C., hydrochloride) amounted to 48%. Besides, the inhibition at 3 µg/mL in assay [1] (setting [6]) stood at 30%. Moreover, the inhibition at 6 µg/mL in assay [1] (setting [9]) came out at 49%. Further, in assay [1] (setting [7]), the inhibition at 12 µg/mL was found to be 100%.

Turning to `CSC1=NC(Cl)=C(c2ccccc2)C2=NCCN12.Cl` [5-Methylthio-7-chloro-8-phenyl-2,3-dihydroimidazo[1,2-c]pyrimidine hydrochloride], in assay [2] (vehicle D, 2.5 % conc.), the “Final Score” value turned out to be 1.97. The “PERCENT INHIBITION OF PLAQUES AT 3 mcg/ml” value in assay [1] (3 mcg/ml, 72 hours at 37° C., hydrochloride) was 100% and 58%.

Take `CNC1=CC2=NCCN2C(C)=N1` [5-methyl-7-methylamino-2,3-dihydroimidazo[1,2-c]pyrimidine dihydrochloride]: the inhibition at 6 µg/mL in assay [1] (setting [9]) was determined as 0%. Besides, the inhibition at 12 µg/mL in assay [1] (setting [7]) was 0%. Also, the inhibition at 25 µg/mL in assay [1] (setting [8]) came to 27%. In assay [1] (72 h, 72 hours at 37° C.), the inhibition at 50 µg/mL was found to be 18% and the inhibition at 100 µg/mL is 30%.

With `CC1=NC(N2CCCC2)=CC2=NCCN12` [5-methyl-7-pyrrolidino-2,3-dihydroimidazo[1,2-c]pyrimidine hydrochloride], the inhibition at 3 µg/mL in assay [1] (setting [6]) was determined as 0%. In addition, in assay [1] (setting [9]), the inhibition at 6 µg/mL amounted to 0%. Moreover, in assay [1] (setting [7]), the inhibition at 12 µg/mL is 0%. Besides, the inhibition at 25 µg/mL in assay [1] (setting [8]) was determined as 0%. Also, in assay [1] (72 h, 72 hours at 37° C.), the inhibition at 50 µg/mL was found to be 0% and the inhibition at 100 µg/mL came out at 7%.

Consider `CCCCCC1=NC(Cl)=CC2=NCCN21` [5-n-Amyl-7-chloro-2,3-dihydroimidazo[1,2-c]pyrimidine hydrochloride], for which, in assay [1] (setting [6]), the inhibition at 3 µg/mL was found to be 0%. Besides, in assay [1] (setting [9]), the inhibition at 6 µg/mL worked out at 0%. In addition, the inhibition at 50 µg/mL in assay [1] (72 h, 72 hours at 37° C.) came to 100%.

Regarding `Cl.O=[N+]([O-])C1=C(NCCCl)N=CN2CCN=C12` [7-(β-chloroethylamino)-8-nitro-2,3-dihydroimidazo[1,2-c]pyrimidine hydrochloride], in assay [3] (vehicle R), the “Final Score” value was 1.25. Moreover, in assay [1] (72 h), the inhibition at 6 µg/mL worked out at 33%, the inhibition at 12 µg/mL came to 41% and the inhibition at 25 µg/mL was found to be 68%.

Turning to `CC1=NC(N(C)Cc2ccccc2)=CC2=NCCN12` [N,5-dimethyl-7-benzylamino-2,3-dihydroimidazo[1,2-c]pyrimidine hydrochloride], the inhibition at 6 µg/mL in assay [1] (setting [9]) came to 0%. Moreover, in assay [1] (setting [7]), the inhibition at 12 µg/mL is 0%. Moreover, the inhibition at 25 µg/mL in assay [1] (setting [8]) was determined as 0%. In assay [1] (72 h, 72 hours at 37° C.), the inhibition at 50 µg/mL worked out at 0% and the inhibition at 100 µg/mL was 9%.
